Assay results from ChEMBL document CHEMBL3991601, “The target landscape of clinical kinase drugs” (Science, 2017).
Calls of active or inactive are those of the source.

Experiments:
[1] = target: T1, Peroxisomal acyl-coenzyme A oxidase 1 (Homo sapiens, UniProt Q15067)
T1 sequence (Q15067 whole entry): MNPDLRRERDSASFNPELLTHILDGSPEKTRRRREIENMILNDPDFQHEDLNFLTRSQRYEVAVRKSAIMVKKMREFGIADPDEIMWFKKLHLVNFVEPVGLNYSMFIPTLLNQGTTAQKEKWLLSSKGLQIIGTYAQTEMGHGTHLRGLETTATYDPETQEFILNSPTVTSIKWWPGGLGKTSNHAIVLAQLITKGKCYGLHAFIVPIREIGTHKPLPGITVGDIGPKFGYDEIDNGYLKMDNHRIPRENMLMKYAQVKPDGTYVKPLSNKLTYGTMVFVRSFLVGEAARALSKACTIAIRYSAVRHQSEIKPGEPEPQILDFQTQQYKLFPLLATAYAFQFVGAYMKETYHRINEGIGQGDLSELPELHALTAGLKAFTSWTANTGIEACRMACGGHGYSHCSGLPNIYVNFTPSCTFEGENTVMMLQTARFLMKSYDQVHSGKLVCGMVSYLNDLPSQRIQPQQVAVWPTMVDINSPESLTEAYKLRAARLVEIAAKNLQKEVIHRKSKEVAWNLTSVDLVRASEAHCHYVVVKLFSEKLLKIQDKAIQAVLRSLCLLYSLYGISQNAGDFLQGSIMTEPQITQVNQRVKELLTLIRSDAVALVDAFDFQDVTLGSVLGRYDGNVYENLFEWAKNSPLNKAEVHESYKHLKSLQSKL

[2] = target: Bone morphogenetic protein receptor type-1A (Homo sapiens, UniProt P36894)
Chain of Bone morphogenetic protein receptor type-1A (P36894 whole entry): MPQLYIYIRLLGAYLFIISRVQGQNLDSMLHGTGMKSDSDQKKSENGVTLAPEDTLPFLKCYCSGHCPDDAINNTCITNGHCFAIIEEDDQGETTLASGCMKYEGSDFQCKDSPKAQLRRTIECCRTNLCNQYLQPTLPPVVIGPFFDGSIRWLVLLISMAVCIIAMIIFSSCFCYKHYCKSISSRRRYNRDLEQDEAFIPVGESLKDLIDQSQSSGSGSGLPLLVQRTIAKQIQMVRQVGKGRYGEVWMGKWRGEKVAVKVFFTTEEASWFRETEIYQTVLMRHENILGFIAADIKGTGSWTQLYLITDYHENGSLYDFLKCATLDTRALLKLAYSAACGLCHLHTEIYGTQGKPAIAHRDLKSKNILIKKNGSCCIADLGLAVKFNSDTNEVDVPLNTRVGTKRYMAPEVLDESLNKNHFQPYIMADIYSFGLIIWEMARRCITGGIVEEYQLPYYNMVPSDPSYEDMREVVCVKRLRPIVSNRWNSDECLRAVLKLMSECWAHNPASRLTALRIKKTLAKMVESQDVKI

Midasin = Midasin (Homo sapiens, UniProt Q9NU22)
[3] = target: T2, Serine/threonine-protein kinase TAO1 (Homo sapiens, UniProt Q7L7X3)
T2 sequence (Q7L7X3 whole entry): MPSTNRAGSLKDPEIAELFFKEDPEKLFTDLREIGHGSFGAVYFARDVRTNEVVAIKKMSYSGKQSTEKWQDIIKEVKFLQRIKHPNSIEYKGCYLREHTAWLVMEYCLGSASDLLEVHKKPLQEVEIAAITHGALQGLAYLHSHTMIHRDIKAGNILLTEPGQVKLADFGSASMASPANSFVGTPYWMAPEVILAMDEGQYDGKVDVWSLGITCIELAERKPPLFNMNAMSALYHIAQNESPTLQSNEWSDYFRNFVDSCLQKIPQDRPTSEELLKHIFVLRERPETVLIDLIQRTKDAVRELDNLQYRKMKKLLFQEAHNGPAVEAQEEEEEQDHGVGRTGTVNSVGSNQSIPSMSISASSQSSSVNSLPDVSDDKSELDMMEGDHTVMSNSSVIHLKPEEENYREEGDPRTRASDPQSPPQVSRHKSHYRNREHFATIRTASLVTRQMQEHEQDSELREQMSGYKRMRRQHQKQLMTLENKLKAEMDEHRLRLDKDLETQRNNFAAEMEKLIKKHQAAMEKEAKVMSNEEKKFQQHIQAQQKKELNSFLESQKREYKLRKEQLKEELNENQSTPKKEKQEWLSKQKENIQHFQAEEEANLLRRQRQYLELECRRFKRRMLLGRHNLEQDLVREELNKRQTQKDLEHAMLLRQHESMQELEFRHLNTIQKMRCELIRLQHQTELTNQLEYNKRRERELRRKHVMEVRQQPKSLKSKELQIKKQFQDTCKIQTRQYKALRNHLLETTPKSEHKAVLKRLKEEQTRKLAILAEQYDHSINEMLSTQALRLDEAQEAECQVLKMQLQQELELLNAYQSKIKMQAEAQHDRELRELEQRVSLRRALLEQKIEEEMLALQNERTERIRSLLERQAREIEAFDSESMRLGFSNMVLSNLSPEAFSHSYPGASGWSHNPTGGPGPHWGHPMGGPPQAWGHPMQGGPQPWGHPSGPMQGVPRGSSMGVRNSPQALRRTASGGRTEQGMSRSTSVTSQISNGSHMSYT

[4] = target: T3, Serine/threonine-protein kinase TBK1 (Homo sapiens, UniProt Q9UHD2)
T3 sequence (Q9UHD2 whole entry): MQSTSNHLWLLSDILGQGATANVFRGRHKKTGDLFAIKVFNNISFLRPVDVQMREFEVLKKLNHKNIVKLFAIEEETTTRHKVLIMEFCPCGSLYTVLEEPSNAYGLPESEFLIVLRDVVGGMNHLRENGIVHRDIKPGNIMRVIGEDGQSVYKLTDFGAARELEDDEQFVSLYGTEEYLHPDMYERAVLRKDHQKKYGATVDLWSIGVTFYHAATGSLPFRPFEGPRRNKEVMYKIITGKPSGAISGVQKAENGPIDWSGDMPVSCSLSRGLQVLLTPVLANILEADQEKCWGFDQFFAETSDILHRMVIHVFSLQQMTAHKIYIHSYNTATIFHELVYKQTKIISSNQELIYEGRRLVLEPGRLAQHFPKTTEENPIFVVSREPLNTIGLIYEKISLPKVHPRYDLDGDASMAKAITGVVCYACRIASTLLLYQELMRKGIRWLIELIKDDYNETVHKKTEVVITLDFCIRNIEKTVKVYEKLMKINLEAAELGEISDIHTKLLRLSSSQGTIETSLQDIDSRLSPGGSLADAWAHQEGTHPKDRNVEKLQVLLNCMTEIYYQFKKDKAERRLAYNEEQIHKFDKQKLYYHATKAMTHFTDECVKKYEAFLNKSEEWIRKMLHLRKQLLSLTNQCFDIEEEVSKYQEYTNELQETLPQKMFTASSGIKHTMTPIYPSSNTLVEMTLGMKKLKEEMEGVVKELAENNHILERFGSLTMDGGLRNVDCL

[5] = target: T4, EKC/KEOPS complex subunit TP53RK (Homo sapiens, UniProt Q96S44)
T4 sequence (Q96S44 whole entry): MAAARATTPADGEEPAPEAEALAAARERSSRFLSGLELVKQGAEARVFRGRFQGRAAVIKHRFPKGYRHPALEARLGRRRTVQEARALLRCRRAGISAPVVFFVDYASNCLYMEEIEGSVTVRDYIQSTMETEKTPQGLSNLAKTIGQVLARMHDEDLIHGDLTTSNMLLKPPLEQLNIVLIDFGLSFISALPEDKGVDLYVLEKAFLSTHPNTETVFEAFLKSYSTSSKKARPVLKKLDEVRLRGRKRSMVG

[6] = target: Adenylate kinase 2, mitochondrial (Homo sapiens, UniProt P54819)
Also: in the data inactive means no Kd found up to 30 µM.

SMILES | Kd [1] | Kd [2] | Kd (Midasin) | Kd [3] | Kd [4] | Kd [5] | Kd [6]
CCS(=O)(=O)N1CC(CC#N)(n2cc(-c3ncnc4[nH]ccc34)cn2)C1 [BARICITINIB] | > 30 µM (inactive) | > 30 µM (inactive) | > 30 µM (inactive) | > 30 µM (inactive) | > 30 µM (inactive) | > 30 µM (inactive) | > 30 µM (inactive)
CN1N=C(N)c2cn([C@@H]3O[C@H](COP(=O)(O)O)[C@@H](O)[C@H]3O)c3ncnc1c23 [TRICIRIBINE PHOSPHATE] | > 30 µM (inactive) | > 30 µM (inactive) | > 30 µM (inactive) | > 30 µM (inactive) | > 30 µM (inactive) | > 30 µM (inactive) | > 30 µM (inactive)
COc1cc2nccc(Oc3ccc(NC(=O)NC4CC4)c(Cl)c3)c2cc1C(N)=O [LENVATINIB] | > 30 µM (inactive) |  | > 30 µM (inactive) | > 30 µM (inactive) | > 30 µM (inactive) | > 30 µM (inactive) | > 30 µM (inactive)
Cc1c(F)cc(C(=O)NC2CC2)cc1-c1ccc(C(=O)NCC(C)(C)C)cn1 [LOSMAPIMOD] |  | > 30 µM (inactive) | > 30 µM (inactive) | > 30 µM (inactive) | > 30 µM (inactive) | > 30 µM (inactive) | > 30 µM (inactive)
Nc1nc(N)c2nc(-c3cccc(O)c3)c(-c3cccc(O)c3)nc2n1 [TG100-115] | > 30 µM (inactive) |  | > 30 µM (inactive) |  |  | > 30 µM (inactive) | > 30 µM (inactive)
CCn1c(=O)c(-c2cc[nH]n2)cc2c(C)nc(N)nc21 [VOXTALISIB] | > 30 µM (inactive) | > 30 µM (inactive) | > 30 µM (inactive) |  | > 30 µM (inactive) | > 30 µM (inactive) | > 30 µM (inactive)
O=C(Nc1cccc(Cl)c1)Nc1ncc(CCNc2ncnc3ccsc23)s1 [SNS-314] | > 30 µM (inactive) | > 30 µM (inactive) | > 30 µM (inactive) |  |  | > 30 µM (inactive) | > 30 µM (inactive)
COc1cc(OC)c(/C=C/S(=O)(=O)Cc2ccc(OC)c(NCC(=O)O)c2)c(OC)c1 [RIGOSERTIB] |  | > 30 µM (inactive) | > 30 µM (inactive) | > 30 µM (inactive) | > 30 µM (inactive) | > 30 µM (inactive) | > 30 µM (inactive)
CN1CCN(c2ccc3nc(-c4c(N)c5c(F)cccc5[nH]c4=O)[nH]c3c2)CC1 [DOVITINIB] | > 30 µM (inactive) |  | > 30 µM (inactive) |  |  | > 30 µM (inactive) | > 30 µM (inactive)
COCCNCc1ccc(-c2cc3nccc(Oc4ccc(NC(=S)NC(=O)Cc5ccc(F)cc5)cc4F)c3s2)nc1 [GLESATINIB] |  | > 30 µM (inactive) | > 30 µM (inactive) | > 30 µM (inactive) | > 30 µM (inactive) | > 30 µM (inactive) | > 30 µM (inactive)
CCc1cnn2c(NCc3ccc[n+]([O-])c3)cc(N3CCCC[C@H]3CCO)nc12 [DINACICLIB] | > 30 µM (inactive) | > 30 µM (inactive) | > 30 µM (inactive) |  |  | > 30 µM (inactive) | > 30 µM (inactive)
Cc1cn(-c2cc(NC(=O)c3ccc(C)c(Nc4nccc(-c5cccnc5)n4)c3)cc(C(F)(F)F)c2)cn1 [NILOTINIB] |  |  | > 30 µM (inactive) |  |  | > 30 µM (inactive) | > 30 µM (inactive)
O=C(O)[C@]1(Cc2cccc(Nc3nccs3)n2)CC[C@@H](Oc2cccc(Cl)c2F)CC1 [MK-5108] |  | > 30 µM (inactive) | > 30 µM (inactive) | > 30 µM (inactive) | > 30 µM (inactive) | > 30 µM (inactive) | > 30 µM (inactive)
Cc1ccc(-n2nc(C(C)(C)C)cc2NC(=O)NCc2cc(F)ccc2Oc2ccc3c(cnn3CCO)c2)cc1 [PEXMETINIB] |  | > 30 µM (inactive) | > 30 µM (inactive) | > 30 µM (inactive) | > 30 µM (inactive) | > 30 µM (inactive) | > 30 µM (inactive)

The remaining lines, values ahead:

Kd [1] | Kd [2] | Kd (Midasin) | Kd [3] | Kd [4] | Kd [5] | Kd [6] | SMILES
> 30 µM (inactive) | > 30 µM (inactive) | > 30 µM (inactive) | > 30 µM (inactive) | > 30 µM (inactive) | > 30 µM (inactive) |  | C[C@@H](Nc1cc(F)cc(F)c1)c1cc(C(=O)N(C)C)cc2c(=O)cc(N3CCOCC3)oc12 [AZD-8186]
> 30 µM (inactive) | > 30 µM (inactive) | > 30 µM (inactive) | > 30 µM (inactive) | > 30 µM (inactive) | > 30 µM (inactive) | > 30 µM (inactive) | Cc1cc([C@@H](C)Nc2ccccc2C(=O)O)c2nc(N3CCOCC3)cc(=O)n2c1 [AZD-6482]
> 30 µM (inactive) | > 30 µM (inactive) | > 30 µM (inactive) |  |  | > 30 µM (inactive) | > 30 µM (inactive) | Cc1cc(Nc2cc(N3CCN(C)CC3)nc(/C=C/c3ccccc3)n2)n[nH]1 [ENMD-2076]
> 30 µM (inactive) | > 30 µM (inactive) |  | 0.002 µM (active) | > 30 µM (inactive) | 0.058 µM (active) |  | O=C1NC(=O)/C(=C/c2ccc3nccc(-c4ccncc4)c3c2)S1 [GSK-1059615]
> 30 µM (inactive) |  | > 30 µM (inactive) |  |  | > 30 µM (inactive) | > 30 µM (inactive) | CCn1c(-c2nonc2N)nc2c(C#CC(C)(C)O)ncc(OC[C@H]3CCCNC3)c21 [GSK-690693]
> 30 µM (inactive) | > 30 µM (inactive) | > 30 µM (inactive) |  |  | > 30 µM (inactive) | > 30 µM (inactive) | Cc1nc(N)sc1-c1ccnc(Nc2ccc(N3CCOCC3)cc2)n1 [CYC-116]
> 30 µM (inactive) | > 30 µM (inactive) | > 30 µM (inactive) |  |  | > 30 µM (inactive) | > 30 µM (inactive) | OCCn1cc(-c2cnc3nnn(Cc4ccc5ncccc5c4)c3n2)cn1 [PF-04217903]
